PubChem BioAssay (NCI)
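Growth conditions: 96-well plates. Treatment: test compound, 48 hours, 5 concentrations. Analysis: linear interpolation between bracketing concentrations; unreached endpoints set to highest concentration. GI50 is the concentration that inhibits growth by half. TGI marks complete inhibition of growth.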

Columns and labels:
Assay in all cases: DTP human tumour cell line panel, 48 h
[1] = test system: IGROV1 ovarian
[2] = test system: SK-MEL-5 melanoma
[3] = test system: NCI-H23 lung
[4] = test system: KM12 colon
[5] = test system: SN12C renal
[6] = test system: OVCAR-3 ovarian
[7] = test system: RPMI-8226 leukemia
[8] = test system: EKVX NSCLC
[9] = test system: SF-268 CNS
[10] = test system: COLO 205 colon

Compound | TGI [1] [µM] | TGI [2] [µM] | TGI [3] [µM] | TGI [4] [µM] | TGI [5] [µM] | TGI [6] [µM] | TGI [7] [µM] | TGI [8] [µM] | TGI [9] [µM] | TGI [10] [µM] | GI50 [1] [µM] | GI50 [2] [µM] | GI50 [3] [µM] | GI50 [4] [µM] | GI50 [5] [µM] | GI50 [6] [µM] | GI50 [7] [µM] | GI50 [8] [µM] | GI50 [9] [µM] | GI50 [10] [µM]
N#Cc1c(NC(=S)NC(=O)c2ccccc2)nc2c(c1-c1ccccc1)CCC2 | > 100 | > 100 | > 100 | > 100 | > 100 | > 100 | > 100 | > 100 | > 100 | > 100 | – | – | – | – | – | – | – | – | – | –
Nc1n[nH]c(=O)[nH]1 | > 100 | > 100 | > 100 | > 100 | > 100 | > 100 | > 100 | > 100 | > 100 | > 100 | – | – | – | – | – | – | – | – | – | –
O=[Se]([O-])c1ccccc1.O=[Se]([O-])c1ccccc1.[OH3+].[OH3+].[Pt+2] | > 42 | 30.5 | 88.4 | 25 | 53.3 | 32.8 | 39.7 | 26 | 18.2 | 18.4 | 9.02 | 13.9 | 7.01 | 3.41 | 9.71 | 7.91 | 5.41 | 6.34 | 6.37 | 6.78
C=CC(=O)Nc1cccc(-c2nc(SC)nc(Nc3ccccc3OC)c2C#N)c1 | – | 4.32 | 5.99 | 12 | 8.15 | 3.58 | > 100 | 10.4 | 14.3 | 5.33 | – | 1.9 | 2.15 | 3.02 | 2.5 | 1.87 | 3.11 | 2.71 | 2.85 | 1.95
COC1OC(=O)[C@H]2O[N+]([O-])=C(C)[C@@H]12 (stereo partly drawn) | > 100 | > 100 | > 100 | > 100 | > 100 | > 100 | > 100 | > 100 | > 100 | > 100 | – | – | – | – | – | – | – | – | – | –
O=C(O)c1ccc(NC(c2ccccc2)c2ccc3cccnc3c2O)cc1 (stereo not drawn) | > 95.8 | 29.8 | > 100 | > 100 | > 54.1 | 14.2 | 28 | > 85.6 | > 100 | > 86.9 | – | – | – | – | – | – | – | – | – | –
